Here are results for five molecules from article PMC10709440, “High-throughput ligand profile characterization in novel cell lines expressing seven heterologous insect olfactory receptors for the detection of volatile plant biomarkers” (Scientific Reports, 2023).

One experiment has as its target T1, Drosophila OR13a (Drosophila melanogaster, UniProt Q9VXL0).
T1 construct: expressed in transfected cells
T1 sequence (Q9VXL0 1-418): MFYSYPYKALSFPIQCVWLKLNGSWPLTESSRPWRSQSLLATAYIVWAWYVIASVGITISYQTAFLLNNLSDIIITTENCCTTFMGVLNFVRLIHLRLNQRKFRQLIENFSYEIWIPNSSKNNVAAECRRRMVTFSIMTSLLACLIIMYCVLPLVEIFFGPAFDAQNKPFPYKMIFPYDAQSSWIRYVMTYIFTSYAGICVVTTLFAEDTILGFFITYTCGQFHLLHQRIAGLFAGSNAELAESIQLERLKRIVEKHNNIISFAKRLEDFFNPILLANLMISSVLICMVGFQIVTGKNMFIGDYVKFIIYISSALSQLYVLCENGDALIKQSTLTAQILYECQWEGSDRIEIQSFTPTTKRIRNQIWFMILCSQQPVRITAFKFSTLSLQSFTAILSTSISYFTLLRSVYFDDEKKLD
T1 sequence (Q9VNB5 1-486 partner): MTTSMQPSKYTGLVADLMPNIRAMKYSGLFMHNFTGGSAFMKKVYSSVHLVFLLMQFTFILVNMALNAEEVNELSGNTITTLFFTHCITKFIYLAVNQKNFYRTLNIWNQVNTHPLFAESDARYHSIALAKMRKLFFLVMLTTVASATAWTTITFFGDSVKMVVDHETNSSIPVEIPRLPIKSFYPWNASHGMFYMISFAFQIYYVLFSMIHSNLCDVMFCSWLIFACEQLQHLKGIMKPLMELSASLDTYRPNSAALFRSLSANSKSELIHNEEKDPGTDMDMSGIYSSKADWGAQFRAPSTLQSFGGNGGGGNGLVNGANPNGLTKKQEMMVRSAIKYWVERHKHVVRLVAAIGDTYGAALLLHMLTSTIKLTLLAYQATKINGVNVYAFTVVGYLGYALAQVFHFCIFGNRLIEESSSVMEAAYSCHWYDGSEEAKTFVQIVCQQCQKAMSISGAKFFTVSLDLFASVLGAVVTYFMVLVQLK
Description: Calcium ion fluorescence (GCaMP6) assay, OR13a stable HEK293 cell line. The experiment is classed as cell-based. Also on record: key to DF norm AVERAGE OR13a: VOC ∆F divided by the plate's mean ∆F response to 50 µM VUAA1. A digest of the protocol:
(§1)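 HEK293 lines stably expressing each Drosophila OR with GCaMP6, doxycycline-induced (1 μg/mL) 48 or 72 h. Fluorescence recorded 5 s baseline then 30 s after VOC injection at pH 7.3; ΔF=(FMAX−F0)/F0, normalized to 50 µM VUAA1 response per line, triplicate wells averaged; concentration series 0.01–100 μM.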

The target of a further experiment is T2, Drosophila OR49b (Drosophila melanogaster, UniProt Q9V6H2).
T2 construct: expressed in transfected cells
T2 sequence (Q9V6H2 1-375): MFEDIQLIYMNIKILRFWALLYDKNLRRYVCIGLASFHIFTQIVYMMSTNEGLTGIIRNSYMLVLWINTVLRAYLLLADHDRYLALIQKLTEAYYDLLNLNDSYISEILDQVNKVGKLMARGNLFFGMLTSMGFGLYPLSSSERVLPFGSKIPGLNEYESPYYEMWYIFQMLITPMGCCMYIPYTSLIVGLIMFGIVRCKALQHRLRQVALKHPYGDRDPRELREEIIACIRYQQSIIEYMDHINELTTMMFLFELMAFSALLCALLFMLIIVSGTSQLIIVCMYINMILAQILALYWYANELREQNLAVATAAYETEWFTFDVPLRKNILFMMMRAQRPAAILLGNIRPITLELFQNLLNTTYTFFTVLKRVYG
T2 sequence (Q9VNB5 1-486 partner): T1 sequence (Q9VNB5 1-486 partner)
The experiment in a line: cell-based. The note with it: for Average response: OR49b cell line, mean of biological replicates. In short, it runs like this: as §1

Setting [1] is: HEK293, read-out: OR13a Average response (VUAA1-normalized).
[2] abbreviates: HEK293, read-out: OR13a response (VUAA1-normalized response).
[3] abbreviates: ligand concentration 1 (unit not given), threshold 0.05, below shown as 0.
[4] abbreviates: ligand concentration 10 (unit not given), threshold 0.05, below shown as 0.
The mark [5] stands for this setting: ligand concentration 100 (unit not given), threshold 0.05, below shown as 0.
Setting [6] is: HEK293, read-out: OR49b Average response (VUAA1-normalized).
The mark [7] stands for this setting: HEK293, read-out: OR49b response (VUAA1-normalized response).
[8] abbreviates: HEK293, read-out: OR13a Average response (VUAA1-normalized), 1 μM VOC, 50 μM VUAA1 = 1, responses not exceeding 0.05 considered 0.
The mark [9] stands for this setting: HEK293, read-out: OR13a Average response (VUAA1-normalized), 10 μM VOC, 50 μM VUAA1 = 1, responses not exceeding 0.05 considered 0.
[10] abbreviates: HEK293, read-out: OR13a Average response (VUAA1-normalized), 100 μM VOC, 50 μM VUAA1 = 1, responses not exceeding 0.05 considered 0.
The mark [11] stands for this setting: HEK293, read-out: OR13a response (VUAA1-normalized response), VOC concentration 1 μM.
Setting [12] is: HEK293, read-out: OR13a response (VUAA1-normalized response), VOC concentration 10 μM.
Where [13] appears, read: HEK293, read-out: OR13a response (VUAA1-normalized response), VOC concentration 100 μM.
[14] abbreviates: HEK293, VOC concentration 1 μM, read-out: OR49b response (VUAA1-normalized response).
[15] abbreviates: HEK293, VOC concentration 10 μM, read-out: OR49b response (VUAA1-normalized response).
The mark [16] stands for this setting: HEK293, VOC concentration 100 μM, read-out: OR49b response (VUAA1-normalized response).

Where two headings read alike, the source gives them in different places.

For `CCc1ccccc1` [ethylbenzene], the activation at 1 µM at Drosophila OR13a (setting [1]) is 1.44%; on Drosophila OR13a (setting [2]), 0%; at Drosophila OR49b (setting [6]), 5%; at Drosophila OR49b (setting [7]), 5%. For the same molecule, the activation at 10 µM came to 1.55% at Drosophila OR13a (setting [1]), 0% at Drosophila OR13a (setting [2]), 9% on Drosophila OR49b (setting [6]) and 9% on Drosophila OR49b (setting [7]). Further, the activation at 100 µM on Drosophila OR13a (setting [1]) was 0%; at Drosophila OR13a (setting [2]), 0%; at Drosophila OR49b (setting [6]) it was 33%; at Drosophila OR49b (setting [7]), 33%. Also, the “DF norm AVERAGE OR13a” value on Drosophila OR13a (setting [3]), on Drosophila OR13a (setting [4]) and at Drosophila OR13a (setting [5]) was 0 in each case. Also, the Average response is listed as 0.05 at Drosophila OR49b (odorant cc. 1 µM), 0.09 at Drosophila OR49b (odorant cc. 10 µM) and 0.33 at Drosophila OR49b (odorant cc. 100 µM). Also, the “DF norm AVERAGE OR49b” value is listed as 0.05039 at Drosophila OR49b (setting [3]), 0.08967 on Drosophila OR49b (setting [4]) and 0.3273 at Drosophila OR49b (setting [5]).

Regarding `C=CCc1ccc(O)c(OC)c1` [eugenol], the activation at 1 µM at Drosophila OR13a (setting [8]), at Drosophila OR13a (setting [11]) and on Drosophila OR49b (setting [14]) was 0% each time. For the same molecule, the activation at 10 µM on Drosophila OR13a (setting [9]), on Drosophila OR13a (setting [12]) and at Drosophila OR49b (setting [15]) was 0% in each case. The activation at 100 µM at Drosophila OR13a (setting [10]), at Drosophila OR13a (setting [13]) and at Drosophila OR49b (setting [16]) was 0% throughout. For the same molecule, the “DF norm AVERAGE OR13a” value at Drosophila OR13a (setting [3]), at Drosophila OR13a (setting [4]) and on Drosophila OR13a (setting [5]) was 0 throughout. Further, the Average response worked out at 0.05 at Drosophila OR49b (odorant cc. 1 µM), 0.00 at Drosophila OR49b (odorant cc. 10 µM) and 0.00 at Drosophila OR49b (odorant cc. 100 µM). For the same molecule, the “DF norm AVERAGE OR49b” value on Drosophila OR49b (setting [3]), at Drosophila OR49b (setting [4]) and at Drosophila OR49b (setting [5]) was 0 in each case.

Take `C=C(C)[C@H]1CC=C(C)CC1` [limonene]: the “OR13a Average response (VUAA1-normalized)” value at Drosophila OR13a (1 μM VOC, 50 μM VUAA1 = 1, responses not exceeding 0.05 considered 0) is listed as 0.00; on Drosophila OR13a (10 μM VOC, 50 μM VUAA1 = 1, responses not exceeding 0.05 considered 0), 0.00; on Drosophila OR13a (100 μM VOC, 50 μM VUAA1 = 1, responses not exceeding 0.05 considered 0), 0.00. In addition, the “OR13a response (VUAA1-normalized response)” value at Drosophila OR13a (VOC concentration 1 μM), on Drosophila OR13a (VOC concentration 10 μM) and at Drosophila OR13a (VOC concentration 100 μM) was 0.00 in each case. The “DF norm AVERAGE OR13a” value on Drosophila OR13a (setting [3]), on Drosophila OR13a (setting [4]) and at Drosophila OR13a (setting [5]) was 0 each time. Also, the Average response on Drosophila OR49b (odorant cc. 1 µM) stood at 0.00; on Drosophila OR49b (odorant cc. 10 µM), 0.00; on Drosophila OR49b (odorant cc. 100 µM) it was 0.028. Also, the “OR49b response (VUAA1-normalized response)” value at Drosophila OR49b (VOC concentration 1 μM), on Drosophila OR49b (VOC concentration 10 μM) and at Drosophila OR49b (VOC concentration 100 μM) was 0.00 throughout. The “DF norm AVERAGE OR49b” value at Drosophila OR49b (setting [3]), at Drosophila OR49b (setting [4]) and at Drosophila OR49b (setting [5]) was 0 each time.

Consider `CCCC(=O)OCC` [ethyl butyrate], for which the activation at 1 µM on Drosophila OR13a (setting [8]), on Drosophila OR13a (setting [11]) and on Drosophila OR49b (setting [14]) was 0% in each case. Moreover, the activation at 10 µM at Drosophila OR13a (setting [9]), on Drosophila OR13a (setting [12]) and on Drosophila OR49b (setting [15]) was 0% throughout. Further, the activation at 100 µM on Drosophila OR13a (setting [10]), on Drosophila OR13a (setting [13]) and at Drosophila OR49b (setting [16]) was 0% each time. The “DF norm AVERAGE OR13a” value at Drosophila OR13a (setting [3]), at Drosophila OR13a (setting [4]) and at Drosophila OR13a (setting [5]) was 0 each time. In addition, the Average response on Drosophila OR49b (odorant cc. 1 µM), on Drosophila OR49b (odorant cc. 10 µM) and at Drosophila OR49b (odorant cc. 100 µM) was 0.00 each time. Moreover, the “DF norm AVERAGE OR49b” value at Drosophila OR49b (setting [3]), at Drosophila OR49b (setting [4]) and on Drosophila OR49b (setting [5]) was 0 each time.

Turning to `CC1=CCC2C(C1)C2(C)C` (stereo not shown) [3-carene], the activation at 1 µM on Drosophila OR13a (setting [8]), at Drosophila OR13a (setting [11]) and at Drosophila OR49b (setting [14]) was 0% throughout. The activation at 10 µM at Drosophila OR13a (setting [9]), at Drosophila OR13a (setting [12]) and on Drosophila OR49b (setting [15]) was 0% each time. The activation at 100 µM at Drosophila OR13a (setting [10]), on Drosophila OR13a (setting [13]) and at Drosophila OR49b (setting [16]) was 0% each time. Besides, the “DF norm AVERAGE OR13a” value on Drosophila OR13a (concentration 1, normalized fluorescence change, values below 0.05 threshold given as 0) turned out to be 0; on Drosophila OR13a (concentration 10, normalized fluorescence change, values below 0.05 threshold given as 0), 0; at Drosophila OR13a (concentration 100, normalized fluorescence change, values below 0.05 threshold given as 0), 0. Moreover, the “DF norm AVERAGE OR49b” value on Drosophila OR49b was 0. Besides, the Average response on Drosophila OR49b (odorant cc. 1 µM), at Drosophila OR49b (odorant cc. 10 µM) and on Drosophila OR49b (odorant cc. 100 µM) was 0.00 throughout.
